Test results as given in paper PMC5161367, “Discovery of Novel Small Molecule Inhibitors of VEGF Expression in Tumor Cells Using a Cell-Based High Throughput Screening Platform” (PLoS ONE, 2016).

Legend:
G-CSF = G-CSF ELISA in HT1080 cells under normoxia; type: cell-based; conditions: Homo sapiens, HT-1080; HT1080 cells under normoxia (21% oxygen), 48 hours
Method: (§1) Cells were treated with vehicle control (0.5% DMSO) or compounds at the indicated concentration for 48 hours, and specific proteins in conditioned medium were quantified using commercially available ELISA kits (R&D Systems) according to the manufacturer’s recommendations. VEGF was quantified in HeLa cells under hypoxia (1% oxygen); Tumor necrosis factor alpha (TNFα) was quantified in CEM cells stimulated with 1 μg/mL interleukin-1 beta (Sigma); erythropoietin (EPO) was quantified in HepB3 cells under hypoxic conditions (1% oxygen); and granulocyte colony-stimulating factor (G-CSF), basic fibroblast growth factor (FGF-2) and insulin-like growth factor 1 (IGF-1) were quantified without induction in HT1080 cells, HeLa cells and HepG2 cells, respectively.
(§2) Several target proteins were chosen as selectivity counter-screens, including TNF-alpha, FGF-2, G-CSF, IGF-1, and EPO. Similar to that of VEGF, the expression levels of these proteins are post-transcriptionally regulated, either through a 5’-UTR IRES, 3’-UTR AU-rich elements (AREs), or both.

hFGF-2 = assay: HT1080 xenograft pharmacodynamic model, intratumor hFGF-2; type: in vivo, mouse; conditions: twice per day for 7 days
Method: (§3) Log phase growing tumor cells (5–10 x 10^6 cells/mouse, depending on the cell line) were implanted subcutaneously in athymic nude mice. When the average tumor size reached the indicated size, mice were randomly divided into groups and administered vehicle (5% DMSO/ 95% PEG-300) or test compounds by oral gavage. Tumor volumes were measured twice per week using digital calipers and body weights once per week. Tumor volume was determined according to the formula: L x (W)^2/2, where L is the longest dimension and W is the shortest dimension.
(§4) At the end of experiments, the tumors were excised from mice and homogenized on ice using a Powergen homogenizer fitted with Omni-Tip disposable/reusable probes (both from Fisher Scientific) in Tris-HCl buffer containing a cocktail of proteinase inhibitors. Intra-tumor human VEGF levels, as well as levels of other growth factors or proteins, were subsequently measured using commercially available ELISA kits (R&D Systems). Protein concentrations of the homogenates were determined using the Bradford protein assay (Bio-Rad) and intratumor growth factor levels were normalized to the total protein concentration.
(§5) Among the VEGF UTR-selective compounds identified, PTC-858 is a potent hit with adequate pharmaceutical properties (data not shown). […]

mVEGF = assay: HT1080 xenograft pharmacodynamic model, intratumor mVEGF; type: in vivo, mouse; conditions: 200 mg/kg, twice per day for 7 days, oral, mean +/- SD, n = 10
Method: as §3, §4, §5

EPO = EPO ELISA in HepB3 cells under hypoxia; type: cell-based; conditions: Homo sapiens; HepB3 cells under hypoxia (1% oxygen), 48 hours
Method: as §1, §2

[1] = system: A375 human melanoma cells; assay: Chick embryo tumor growth study; type: in vivo; conditions: A375 on CAM, single intravenous injection 500 μg per embryo, excised 6 days after dose
Method: The chick embryo tumor growth assay was performed as described previously with some modifications. A375 human melanoma cells (5 x 10^6) log-phase growth in a total volume of 40 μL RPMI1640 medium were inoculated into the CAM of 10-day old chick embryos. After 24 h, the embryo received a single intravenous injection of 100 μL of compound (500 μg per embryo) or vehicle control (5% Cremaphor and 5% ethanol in PBS). The embryos were incubated for another 6 days, at which time the embryos were sacrificed. Tumors that formed at the primary site were excised, trimmed free of surrounding CAM tissue, and weighed.
To test the hypothesis that targeting VEGF post-transcriptionally can be a useful approach for the treatment of cancers, we initially evaluated the efficacy of the compounds in a chick embryo tumor growth model, known to be angiogenesis-dependent. Briefly, A375 human melanoma cells were seeded on the chorioallantoic membrane (CAM) of 10 day old chick embryos and, after 24 h, the embryo received a single intravenous injection of 100 μL of compound (500 μg per embryo) or vehicle control (5% Cremaphor and 5% ethanol in PBS). Tumors were grown for seven days, excised, and their wet weights were determined.
A375 human melanoma cells (5 x 10^6) were inoculated into the CAM of 10-days-old chick embryos. […]

Cyp3A4 = Cyp3A4 (Homo sapiens, UniProt P08684); assay: p450 inhibition Cyp3A4; type: in vitro ADME
Cyp3A4, sequence (P08684 whole entry): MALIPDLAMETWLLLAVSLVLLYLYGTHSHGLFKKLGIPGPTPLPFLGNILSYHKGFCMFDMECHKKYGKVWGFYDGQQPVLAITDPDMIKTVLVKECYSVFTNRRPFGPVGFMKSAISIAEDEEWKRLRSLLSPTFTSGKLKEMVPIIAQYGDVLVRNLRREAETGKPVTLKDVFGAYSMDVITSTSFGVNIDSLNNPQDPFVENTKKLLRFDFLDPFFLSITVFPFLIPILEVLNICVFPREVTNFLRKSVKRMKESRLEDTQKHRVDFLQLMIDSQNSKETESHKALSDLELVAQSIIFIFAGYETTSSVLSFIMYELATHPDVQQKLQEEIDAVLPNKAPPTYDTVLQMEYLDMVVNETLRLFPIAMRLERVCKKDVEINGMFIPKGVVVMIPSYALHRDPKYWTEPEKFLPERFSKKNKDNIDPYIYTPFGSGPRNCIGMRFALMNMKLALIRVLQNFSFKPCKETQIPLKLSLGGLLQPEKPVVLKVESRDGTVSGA

[2] = Microsome metabolism - human; type: in vitro ADME
Method: (§6) Pharmacological characterization of PTC-510. Pharmacological assays were performed to characterize PTC-510, including metabolic stability in human, primate mouse and rat liver microsomes; absorption in Caco-2 cells; in vitro effect on hERG ion channel; pharmacokinetics; and acute toxicity in the rat.

[3] = Microsome metabolism - dog; type: in vitro ADME
hERG ion channel = hERG ion channel (Homo sapiens, UniProt Q12809); type: biochemical
hERG ion channel, sequence (Q12809 whole entry): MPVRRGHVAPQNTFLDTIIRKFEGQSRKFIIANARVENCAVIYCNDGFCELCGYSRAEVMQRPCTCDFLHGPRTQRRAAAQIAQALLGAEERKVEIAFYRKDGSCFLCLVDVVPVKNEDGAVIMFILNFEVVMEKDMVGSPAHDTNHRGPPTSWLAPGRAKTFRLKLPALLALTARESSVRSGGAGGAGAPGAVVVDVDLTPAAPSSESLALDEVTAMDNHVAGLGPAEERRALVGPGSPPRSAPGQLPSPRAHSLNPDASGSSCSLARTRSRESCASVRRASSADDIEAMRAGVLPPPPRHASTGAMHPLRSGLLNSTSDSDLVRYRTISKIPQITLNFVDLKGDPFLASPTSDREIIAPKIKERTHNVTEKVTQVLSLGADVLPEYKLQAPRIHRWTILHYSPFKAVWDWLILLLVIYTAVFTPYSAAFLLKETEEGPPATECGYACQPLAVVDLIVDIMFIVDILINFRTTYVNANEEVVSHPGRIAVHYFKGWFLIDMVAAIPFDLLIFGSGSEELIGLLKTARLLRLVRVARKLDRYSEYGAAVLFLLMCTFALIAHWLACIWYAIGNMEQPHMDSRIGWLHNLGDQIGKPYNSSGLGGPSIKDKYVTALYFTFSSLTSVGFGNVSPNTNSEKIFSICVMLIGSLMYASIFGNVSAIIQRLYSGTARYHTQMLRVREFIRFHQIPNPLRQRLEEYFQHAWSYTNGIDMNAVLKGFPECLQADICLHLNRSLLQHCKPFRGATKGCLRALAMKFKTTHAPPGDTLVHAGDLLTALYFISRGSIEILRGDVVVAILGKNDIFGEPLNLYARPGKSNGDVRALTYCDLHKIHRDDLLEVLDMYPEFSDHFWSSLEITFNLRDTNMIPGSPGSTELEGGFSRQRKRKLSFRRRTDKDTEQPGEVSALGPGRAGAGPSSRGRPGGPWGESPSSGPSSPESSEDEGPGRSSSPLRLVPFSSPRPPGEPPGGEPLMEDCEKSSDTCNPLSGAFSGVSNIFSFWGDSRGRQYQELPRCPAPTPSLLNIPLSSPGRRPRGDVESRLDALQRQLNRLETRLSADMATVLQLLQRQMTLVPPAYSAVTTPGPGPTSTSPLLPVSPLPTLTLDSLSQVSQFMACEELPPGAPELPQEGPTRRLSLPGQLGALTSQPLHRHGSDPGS
Method: as §6

[4] = Microsome metabolism - rat; type: in vitro ADME
Method: as §6

[5] = Plasma exposure after a single oral dose in mice; type: in vivo, mouse; conditions: male C57BL/6 mice, single oral dose 10 mg/kg, 5% DMSO and 95% PEG300
Method: Supplementary file pone.0168366.s006.doc: S6 Fig Exposure of PTC-510 after oral administration. Male C57BL/6 mice were dosed with test compound in 5% DMSO and 95% PEG300. At specified time points (3 mice per time point), mice were euthanized and blood collected by terminal cardiac puncture. Plasma test compounds were then measured by LC/MS-MS. (DOC) Click here for additional data file.
Male C57BL/6 mice were administered test compounds in 5% DMSO and 95% PEG300 at a dose of 10 mg/kg. At specified time points (3 mice per time point), mice were euthanized and blood collected by terminal cardiac puncture. Plasma concentrations of test compounds were then quantified by LC/MS-MS.

Compound: Brc1ccc2[nH]c3c(c2c1)CCCC3n1cccc1 (stereo not drawn) [PTC-858, 6-bromo-1-(1H-pyrrol-1-yl)-2,3,4,9-tetrahydro-1H-carbazole]
- EC50 (G-CSF): > 30 µM
- changes in FGF-2 in vivo (hFGF-2; 200 mg/kg orally): not significant
- intratumor hFGF-2 (hFGF-2; 200 mg/kg, oral, mean +/- SD, n = 10): 3126.8 ± 1073.7 pg/mg total tumor proteins
- intratumor mVEGF (mVEGF): 12.6 ± 5.9 pg/mg total tumor proteins
- EC50 (EPO): 8.1 µM
- tumor size (wet weight) vs no-treatment or vehicle controls [1]: significantly reduced tumor size

Compound: COc1ccc(C2c3[nH]c4ccc(Br)cc4c3CC3C(=O)N(C4CCCCC4)C(=S)N32)cc1.O=C(O)C(F)(F)F (stereo not drawn) [PTC-510, 9-bromo-2-cyclohexyl-5-(4-methoxyphenyl)-3-thioxo-2,3,5,6,11,11a-hexahydro-1H-imidazo[1’,5’:1,6]pyrido[3,4-b]indol-1-one trifluoroacetate]
- IC50 (Cyp3A4): 3.7 µM
- Microsome metabolism - human, % loss @ 1 h [2]: 0%
- Microsome metabolism - dog, % loss @ 1 h [3]: 0%
- HERG % inhibition @ 10 µM (hERG ion channel): 2%
- Microsome metabolism - rat, % loss @ 1 h [4]: 0%
- bio-availability and exposure compared to PTC-858 [5]: much better bio-availability and exposure
